The values below come from patent publication US6576647B2, “Pseudopolymorph of (—)-cis-2-(2-chlorophenyl)-5,7-dihydroxy-8[4R-(3S-hydroxy -1-methyl)piperidinyl]-4H-1-benzopyran-4-one” (Aventis Pharmaceuticals Inc., priority 2000, dated 2003).

“Also recorded” adds a separate entry of the source.

A short description of data set [1]: Hygroscopicity screening by Dynamic Water Vapor Sorption Analysis (DVS). The class given is physicochemical. To be noted: for weight gain: 25° C. and 40° C.; for hygroscopicity assessment: conclusion from DVS weight gain, hydrochloride. On the procedure:
Hygroscopicity Screening—Comparison of Form I and Form II
Dynamic Vapor Sorption (DVS) Analysis Studies were Conducted on Form II Versus Form I.
Dynamic Water Vapor Sorption Analysis (DVS)
Form II was studied at 25° C. using a Surface Measurement Systems Dynamic Vapor Sorption DVS-1 analyzer. A sample in the range of about 14.8 mg was placed in a tared quartz sample holder at an initial ambient room humidity setting of about 48% Relative Humidity (RH). A total wet/dry nitrogen flow rate of 200 cc/min was used throughout the study. The following full cycle program was initiated: 30 min at the initial ambient RH, followed by settings of 0, 20, 40, 60, 80, 90, 95 and 98% RH, with exposure time at each humidity set point dependent upon dm/dt being less than 0.001% for 60 min. The maximum time allowed at any one humidity set point was 24 hours. For a full cycle, data collection took about 4 days to complete. After the full cycle the sample was maintained at the same RH as the initial ambient starting RH.
Form I was studied at 25° C. and 40° C. using the DVS-1 analyzer. Data was collected over two full cycles. Samples of 10.4 and 16.7 mg were placed into respective tared quartz sample holders at an initial ambient room humidity setting of about 46% RH and 33% RH, respectively. For this study, an additional 75% RH set point was used. For 2 full cycles, data collection took about 7 days at 25° C. and about 17 days at 40° C. to complete. After completion of each 2 cycle study, the samples were maintained at the same RH as the initial ambient starting RH.

A short description of data set [2]: Variable humidity X-ray powder diffraction (crystallinity versus relative humidity). Format: physicochemical. To be noted: variable humidity XRPD; hydrochloride. The text has this:
X-ray Powder Diffraction (XRPD) patterns were taken on a Scintag XDS 2000 θ/θ diffractometer operating with copper radiation at 45 kV and 40 mA, using a Kevex Psi Peltier-cooled silicon detector. Source slits of 2 and 4 mm, and detector slits of 0.5 and 0.3 mm were used for data collection. Form II samples were gently milled using an agate mortar and pestle for approximately one minute, placed in a platinum sample pan, and leveled using a glass microscope slide. Samples taken during or post hygroscopicity testing were not milled due to the limited amount of sample available. In each case, powder diffraction patterns were scanned from 2° to 42° 2θ at 1°/minute. Calibration of the XDS 2000 was verified using Silicon powder.
For variable relative humidity experiments, the larger capacity DVS-2 Surface Measurement Systems Dynamic Vapor Sorption analyzer was used. Using a flow rate of 500 cc/min, Form II was held at desired RH settings and sampled periodically for XRPD analysis. Unmilled material was placed in the platinum sample pan and leveled using a glass microscope slide prior to analysis using the above conditions.

Turning to `CN1CC[C@H](c2c(O)cc(O)c3c(=O)cc(-c4ccccc4Cl)oc23)[C@H](O)C1.Cl` (relative stereo) [Form I, (−)-cis-2-(2-chlorophenyl)-5,7-dihydroxy-8[4R-(3S-hydroxy-1-methyl)piperidinyl]-4H-1-benzopyran-4-one hydrochloride], the weight gain entry in data set [1] (DVS, above 90% RH) is given as “about 30%”; in data set [1] (DVS, through about 75% RH), 1-2%. In data set [1], the hygroscopicity assessment entry is reported as “hygroscopic above 75% RH; also recorded: less hygroscopic than Form II”. Besides, in data set [2], the “crystallinity as the humidity is increased” value is “retains its crystallinity until extremely high relative humidity is reached”.

On to `CN1CC[C@H](c2c(O)cc(O)c3c(=O)cc(-c4ccccc4Cl)oc23)[C@H](O)C1.Cl` (relative stereo) [Form II, (−)-cis-2-(2-chlorophenyl)-5,7-dihydroxy-8[4R-(3S-hydroxy-1-methyl)piperidinyl]-4H-1-benzopyran-4-one hydrochloride, reference compound], for which the additional weight gain in data set [1] (DVS, above 60% relative humidity, 25° C.) was 15-20%. The hygroscopicity assessment result in data set [1] is given as “hygroscopic”. For the same compound, in data set [2], the “crystallinity as the humidity is increased” value is given as “apparent decrease in crystallinity”.
